Experimental data taken from patent US20220356163A1, “SMALL MOLECULE INHIBITORS OF Id PROTEINS” (MEMORIAL SLOAN KETTERING CANCER CENTER, priority 2019, published 2022).

System: choroidal neovascularization
Assay: Laser-induced choroidal neovascularization (CNV) model of AMD
Format: in vivo, mouse
Settings: intravitreal days 1 and 7; 10 μg AGX51E2, 40 μg Aflibercept
Description: Mouse mode/s of ocular neovascularization. CNV was induced as previously described. Tobe et al., Am. J. Pathol., 153, 1641-1646 (1998). Briefly, 4-6 week-old female Id1^−/− or Id3^−/− mice and littermate control Id1^+/+ or Id3^+/+ mice (all in C57BL/6 background) had laser-induced rupture of Bruch's membrane at three locations in each eye and after 14 days mice were euthanized, eyes were removed, and choroidal flat mounts were stained with FITC-labeled Griffonia simplicifolia lectin (Vector Laboratories, Burlingame, Calif.) which selectively stains vascular cells (n=12 mice per group). Flat mounts were examined by fluorescence microscopy and the area of each CNV was measured by image analysis with Image-Pro Plus software (Media Cybernetics, Silver Spring, Md.) by an observer masked with respect to experimental groups. In other experiments, wild type 4-6 week-old, female, C57BL/6 mice had rupture of Bruch's membrane in each eye followed by intravitreal injection of 1-30 μg of AGX51 (racemic, E1 or E2) or vehicle in one eye immediately and after 7 days or mice were given twice daily i.p. injections of 500 μg of AGX51 or vehicle for 14 days (n=7-10 mice per group). The area of CNV was measured 14 days after rupture of Bruch's membrane. For Aflibercept and AGX-A treatment experiments, rupture of Bruch's membrane was carried out and then mice were treated with 40 μg of Aflibercept, 10 μg of AGX51E2, 1-5 μg of AGX51, 1-5 μg of AGX-A, DMSO or combinations. The mice were 4-6 week-old female C57BL/6. After 14 days, the mice were euthanized and CNV was measured as described above.

Substance: Aflibercept: clinically approved treatment for AMD, a VEGF trap
- CNV area, head-to-head and combination treatment: failed to reach statistical significance
